According to US7482328B2, “Antimicrobial polypeptide and utilization thereof” (Toagosei Co., Ltd., priority 2002, dated 2009):
No end group written: not given here.

What was measured:
Assay type in all cases: cell-based
[1] = test system: Pseudomonas aeruginosa IFO3080; conditions: IFO3080, 24 h
Protocol: (§1) More specifically, liquid bouillon media (“NUTRIENT BROTH Dehydraged” manufactured by DIFCO) in a polypeptide concentration of 500, 250, 125, 62.5, 31.3, 15.6, 7.8, 3.9, 1.9, 1.0 and 0.5 μM were prepared, and filled in a 96-well microplate. On the other hand, bacteria suspension (about 2×10^6 cells/mL) that had been stationary cultured at 37° C. for 18 hours with LB Broth, Lennox (manufactured by DIFCO) were inoculated to each well of the 96-well microplate in an equal amount to that of the pharmaceutical solution (the above-described polypeptide-containing bouillon medium). After inoculation, culture was started in an incubator at 37° C., and it was examined based on the turbidity after 24 hours and 48 hours whether or not bacteria are present. The minimum of the polypeptide concentrations in which no increase in the turbidity caused by bacteria at the time of measurement was observed was defined as MIC in this example.
(§2) Next, regarding the polypeptides of the samples 16, 17, 10, 14, and 20, the same antimicrobial test (MIC measurement test) as in Example 2 was performed with respect to various bacteria (see Table 3), and the antimicrobial spectra of these polypeptides were evaluated.

[2] = test system: Staphylococcus aureus RN450 (*MSSA); conditions: RN450 (*, 24 h)
Protocol: as §1, §2

[3] = test system: Pseudomonas aeruginosa ATCC10145; conditions: ATCC10145, 24 h
Protocol: as §1, §2

[4] = test system: Bacillus subtilis IFO3134; conditions: IFO3134, 24 h
Protocol: as §1, §2

[5] = test system: Bacillus subtilis ATCC6633; conditions: ATCC6633, 24 h
Protocol: as §1, §2

[6] = test system: Micrococcus luteus IFO12708; conditions: IFO12708, 24 h
Protocol: as §1, §2

Bacillus pumilus IFO3813 = test system: Bacillus pumilus IFO3813
Protocol: as §1, §2

[7] = test system: Staphylococcus aureus IFO12732; conditions: IFO12732, 24 h
Protocol: as §1, §2

Bacillus cereus IFO15305 = conditions: IFO15305, 24 h
Protocol: as §1, §2

[8] = test system: Proteus vulgaris ATCC13315; conditions: ATCC13315, 24 h
Protocol: as §1, §2

Bacillus cereus IFO3001 = conditions: IFO3001, 24 h
Protocol: as §1, §2

[9] = test system: Staphylococcus aureus COL (MRSA)
Protocol: as §1, §2

[10] = test system: Escherichia coli IFO12713; conditions: IFO12713, 24 h
Protocol: as §1, §2

[11] = test system: Klebsiella pneumoniae ATCC4352; conditions: ATCC4352, 24 h
Protocol: as §1, §2

[12] = test system: Salmonella enteritidis IFO3313; conditions: IFO3313, 24 h
Protocol: as §1, §2

[13] = test system: Salmonella typhimurium IFO1324; conditions: murium IFO1324, 24 h
Protocol: as §1, §2

[14] = test system: Staphylococcus aureus IID1677 (MRSA); conditions: IID1677, 24 h
Protocol: as §1, §2

Bacillus brevis IFO15304 = test system: Bacillus brevis IFO15304
Protocol: as §1, §2

[15] = test system: Escherichia coli O157:H7 sakai; conditions: O157:H7, 24 h
Protocol: as §1, §2

S. aureus = test system: S. aureus
Protocol: (§3) Regarding the antimicrobial polypeptide of the present invention (samples 1 to 33) and the polypeptides of comparative samples 1 to 3, the antimicrobial activities (minimum inhibitory concentration: MIC) with respect to gram-negative bacteria (E. coli) and gram-positive bacteria (S. aureus) were determined by a liquid medium dilution technique using a 96-well microplate.
as §1
(§4) The unit of MIC in Table 2 is μM. […]

E. coli = test system: E. coli
Protocol: as §3, §1, §4

[16] = test system: gram-negative bacteria (E. coli) and gram-positive bacteria (S. aureus); experiment: antimicrobial test of Example 2, results summed up in words; conditions: summary of Table 2, E. coli and S. aureus
Protocol: as §3, §1

| Sequence | antimicrobial activity after 24 hours: MIC [1] [µM] | antimicrobial activity after 24 hours: MIC [2] [µM] | antimicrobial activity after 24 hours: MIC [3] [µM] | antimicrobial activity after 24 hours: MIC [4] [µM] | antimicrobial activity after 24 hours: MIC [5] [µM] | antimicrobial activity after 24 hours: MIC [6] [µM] | antimicrobial activity after 24 hours: MIC (Bacillus pumilus IFO3813) [µM] | antimicrobial activity after 24 hours: MIC (Bacillus cereus IFO15305) [µM] | antimicrobial activity after 24 hours: MIC [8] [µM] | antimicrobial activity after 24 hours: MIC (Bacillus cereus IFO3001) [µM] | antimicrobial activity after 24 hours: MIC [9] [µM] | antimicrobial activity after 24 hours: MIC [10] [µM] | antimicrobial activity after 24 hours: MIC [11] [µM] | antimicrobial activity after 24 hours: MIC [12] [µM] | antimicrobial activity after 24 hours: MIC [13] [µM] | antimicrobial activity after 24 hours: MIC (Bacillus brevis IFO15304) [µM] | antimicrobial activity after 24 hours: MIC [15] [µM] | antimicrobial activity (MIC) S. aureus after 24h (S. aureus) [µM] | antimicrobial activity (MIC) S. aureus after 48h (S. aureus) [µM] | antimicrobial activity (MIC) E. coli after 48h (E. coli) [µM] | further results |
| --- | --- | --- | --- | --- | --- | --- | --- | --- | --- | --- | --- | --- | --- | --- | --- | --- | --- | --- | --- | --- | --- |
| RKKKRKVRKKKRKV [sample 20, RKKKRKVRKKKRKV] | 4.2 | 33.5 | 4.2 | 4.2 | 2.1 | 8.4 | 16.7 | 133.9 | 8.4 | >267.9 | 33.5 | 8.4 | 4.2 | 4.2 | 8.4 | 133.9 | 8.4 | 1.9 | 1.9 | 1.9 | antimicrobial activity after 24 hours: MIC [7]: 4.2 µM; antimicrobial activity after 24 hours: MIC [14]: 8.4 µM; antimicrobial activity (MIC) E. coli after 24h (E. coli): 1.9 µM |
| RKKKRKVLALKLAGLDI [sample 14, RKKKRKVLALKLAGLDI] | 16.0 | 16.0 | 32.0 | 1.0 | 1.0 | 4.0 | 4.0 | 64.1 | 64.1 | 32.0 | 16.0 | 8.0 | 32.0 | 32.0 | >256.3 | 128.2 | 8.0 | 1.0 | 1.9 | 3.9 | antimicrobial activity (MIC) E. coli after 24h (E. coli): 3.9 µM; antimicrobial activities (in words) [16]: high antimicrobial activities |
| RIRKKLRRIRKKLR [sample 17, RIRKKLRRIRKKLR] | 8.1 | 32.5 | 8.1 | 0.5 | 1.0 | 4.1 | 16.3 | >260.3 | 8.1 | >260.3 | 16.3 | 8.1 | 8.1 | 4.1 | 4.1 | >260.3 | 8.1 | 3.9 | 3.9 | 3.9 | antimicrobial activity after 24 hours: MIC [7]: 2.0 µM; antimicrobial activity after 24 hours: MIC [14]: 8.1 µM |
